Data from ChEMBL document CHEMBL4311943, “3-[(1S,2S,3R)-2,3-Difluoro-1-hydroxy-7-methylsulfonylindan-4-yl]oxy-5-fluorobenzonitrile (PT2977), a Hypoxia-Inducible Factor 2α (HIF-2α) Inhibitor for the Treatment of Clear Cell Renal Cell Carcinoma” (J Med Chem, 2019).
Active and inactive are the calls of the source. The rule behind the calls is not given here.

Assays:
[1] = biological target: Neuromedin-U receptor 1 (Homo sapiens) (UniProt Q9HB89); experiment: Activity at human NMU1 receptor at 10 uM
Neuromedin-U receptor 1 (Homo sapiens), sequence (Q9HB89 whole entry): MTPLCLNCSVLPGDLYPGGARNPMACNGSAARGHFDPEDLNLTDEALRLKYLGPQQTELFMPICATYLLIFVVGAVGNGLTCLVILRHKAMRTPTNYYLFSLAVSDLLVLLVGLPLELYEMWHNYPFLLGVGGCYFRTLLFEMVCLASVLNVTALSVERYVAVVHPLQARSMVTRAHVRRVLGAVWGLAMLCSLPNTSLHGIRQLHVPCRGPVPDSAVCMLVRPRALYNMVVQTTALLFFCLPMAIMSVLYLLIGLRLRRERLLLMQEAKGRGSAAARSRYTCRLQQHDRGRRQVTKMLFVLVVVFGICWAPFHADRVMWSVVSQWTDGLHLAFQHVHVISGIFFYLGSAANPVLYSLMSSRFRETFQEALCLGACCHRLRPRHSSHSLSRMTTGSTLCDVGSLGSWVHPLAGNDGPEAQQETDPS

[2] = biological target: fMet-Leu-Phe receptor (Homo sapiens) (UniProt P21462); experiment: Activity at human FPR1 receptor at 10 uM
[3] = biological target: Hydroxycarboxylic acid receptor 2 (Homo sapiens) (UniProt Q8TDS4); experiment: Activity at human GPR109A receptor at 10 uM
Hydroxycarboxylic acid receptor 2 (Homo sapiens), sequence (Q8TDS4 whole entry): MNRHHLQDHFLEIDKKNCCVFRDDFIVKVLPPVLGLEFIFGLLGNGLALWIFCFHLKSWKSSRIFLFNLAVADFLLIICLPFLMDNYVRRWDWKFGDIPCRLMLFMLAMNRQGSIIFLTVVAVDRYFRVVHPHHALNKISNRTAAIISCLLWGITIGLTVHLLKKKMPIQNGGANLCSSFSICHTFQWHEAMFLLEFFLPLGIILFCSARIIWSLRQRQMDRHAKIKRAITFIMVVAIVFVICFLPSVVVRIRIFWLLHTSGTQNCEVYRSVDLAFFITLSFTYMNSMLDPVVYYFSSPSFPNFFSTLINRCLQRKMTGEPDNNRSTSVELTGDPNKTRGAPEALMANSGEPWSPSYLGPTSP

[4] = Cmin in patient with advanced solid tumor at 120 mg, po administered once daily measured on day 15 measured after 24 hrs; type: ADME, organism-based; settings: human, in vivo, read-out: Cmin
[5] = Lipophilicity, log D of the compound at pH 7.4; type: physicochemical; settings: buffer
[6] = Protein binding in mouse plasma at 10 uM measured after 4 hrs by LC-MS/MS analysis; type: ADME, cell-free; settings: read-out: PPB (converted)
Cytochrome P450 2C8 = Cytochrome P450 2C8 (Homo sapiens, UniProt P10632); experiment: Inhibition of CYP2C8 in human liver microsomes up to 50 uM using amodiaquine as substrate measured after 10 mins in presence of NADPH by LC-MS/MS analysis; type: ADME
Cytochrome P450 2C19 = Cytochrome P450 2C19 (Homo sapiens, UniProt P33261); experiment: Inhibition of CYP2C19 in human liver microsomes up to 50 uM using S-mephenytoin as substrate measured after 20 mins in presence of NADPH by LC-MS/MS analysis; type: ADME
Cytochrome P450 2D6 = Cytochrome P450 2D6 (Homo sapiens, UniProt P10635); experiment: Inhibition of CYP2D6 in human liver microsomes up to 50 uM using dextromethorphan as substrate measured after 10 mins in presence of NADPH by LC-MS/MS analysis; type: ADME
[7] = Volume of distribution at steady state in CD-1 mouse at 3 mg/kg, iv by UPLC-MS analysis; type: ADME, organism-based; settings: in vivo, read-out: Vdss
[8] = Half life in Sprague-Dawley rat at 1 mg/kg, iv by UPLC-MS analysis; type: ADME, organism-based; settings: in vivo
[9] = Half life in monkey at 1 mg/kg, iv by UPLC-MS analysis; type: ADME, organism-based, Macaca mulatta; settings: rhesus monkey, in vivo
786-0 = experiment: Antitumor activity against human 786-O cells xenografted in SCID Beige mouse assessed as tumor regression at 0.3 to 3 mg/kg, po administered twice daily via gavage for 3 days measured 12 hrs post-last; type: functional, organism-based
[10] = Half life in patient with advanced solid tumor at 120 mg, po administered once daily measured on day 15; type: ADME, organism-based; settings: human, in vivo
[11] = Cmax in patient with advanced solid tumor at 80 mg, po administered once daily measured on day 15; type: ADME, organism-based; design: dose 80 mg, route oral; settings: human, in vivo
[12] = Cmax in patient with advanced solid tumor at 240 mg, po administered once daily measured on day 15; type: ADME, organism-based; design: dose 240 mg, route oral; settings: human, in vivo
[13] = AUClast in patient with advanced solid tumor at 80 mg, po administered once daily measured on day 15; type: ADME, organism-based; design: dose 80 mg, route oral, time 0 - last; settings: human, in vivo
[14] = AUClast in patient with advanced solid tumor at 120 mg, po administered once daily measured on day 15; type: ADME, organism-based; design: dose 120 mg, route oral, time 0 - last; settings: human, in vivo
[15] = Plasma concentration in patient with advanced solid tumor at 20 mg, po administered once daily measured on day 15 after 24 hrs; type: ADME, organism-based; settings: human
Homo sapiens [16] = experiment: In vivo inhibition of HIF-2alpha in po dosed patient with advanced solid tumor assessed as reduction in EPO expression administered once daily; type: organism-based
[17] = biological target: Muscarinic acetylcholine receptor M2 (Homo sapiens) (UniProt P08172); experiment: Activity at human M2 receptor at 10 uM
Muscarinic acetylcholine receptor M2 (Homo sapiens), sequence (P08172 whole entry): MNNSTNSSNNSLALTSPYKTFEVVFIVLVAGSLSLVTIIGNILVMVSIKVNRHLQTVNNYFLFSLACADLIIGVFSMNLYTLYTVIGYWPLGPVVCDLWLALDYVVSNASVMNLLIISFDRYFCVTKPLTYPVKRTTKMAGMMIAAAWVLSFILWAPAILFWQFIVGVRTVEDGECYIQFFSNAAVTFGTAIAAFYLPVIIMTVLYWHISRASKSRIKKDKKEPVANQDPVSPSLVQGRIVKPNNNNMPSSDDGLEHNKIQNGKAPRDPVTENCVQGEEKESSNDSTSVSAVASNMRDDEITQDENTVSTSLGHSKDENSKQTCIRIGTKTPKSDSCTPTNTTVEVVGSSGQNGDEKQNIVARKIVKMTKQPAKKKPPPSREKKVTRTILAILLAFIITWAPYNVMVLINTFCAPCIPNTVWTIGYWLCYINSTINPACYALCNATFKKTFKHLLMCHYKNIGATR

[18] = biological target: Adenosine receptor A1 (Homo sapiens) (UniProt P30542); experiment: Activity at human adenosine A1 receptor at 10 uM
Adenosine receptor A1 (Homo sapiens), sequence (P30542 whole entry): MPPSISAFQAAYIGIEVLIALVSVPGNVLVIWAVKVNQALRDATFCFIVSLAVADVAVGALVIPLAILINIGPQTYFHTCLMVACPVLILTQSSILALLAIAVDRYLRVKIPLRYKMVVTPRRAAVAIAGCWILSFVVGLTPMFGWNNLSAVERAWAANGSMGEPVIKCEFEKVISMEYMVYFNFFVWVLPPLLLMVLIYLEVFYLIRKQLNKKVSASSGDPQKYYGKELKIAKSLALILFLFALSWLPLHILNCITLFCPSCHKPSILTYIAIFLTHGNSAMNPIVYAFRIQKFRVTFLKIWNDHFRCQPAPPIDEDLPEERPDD

[19] = biological target: Alpha-1A adrenergic receptor (Homo sapiens) (UniProt P35348); experiment: Activity at human alpha1A receptor at 10 uM
[20] = biological target: Cyclin-dependent kinase 2/cyclin E1 (Homo sapiens) (UniProt P24864+P24941); experiment: Activity at human CDK2/cyclinE at 10 uM; type: protein-complex assay
[21] = biological target: CDK2/Cyclin A2 (Homo sapiens) (UniProt P24941+P20248); experiment: Activity at human CDK2/cyclinA at 10 uM; type: protein-complex assay
[22] = biological target: Calcium/calmodulin-dependent protein kinase type II subunit beta (Homo sapiens) (UniProt Q13554); experiment: Activity at human CAMK2B at 10 uM
[23] = biological target: Calcium/calmodulin-dependent protein kinase type II subunit gamma (Homo sapiens) (UniProt Q13555); experiment: Activity at human CAMK2G at 10 uM
Calcium/calmodulin-dependent protein kinase type II subunit gamma (Homo sapiens), sequence (Q13555 whole entry): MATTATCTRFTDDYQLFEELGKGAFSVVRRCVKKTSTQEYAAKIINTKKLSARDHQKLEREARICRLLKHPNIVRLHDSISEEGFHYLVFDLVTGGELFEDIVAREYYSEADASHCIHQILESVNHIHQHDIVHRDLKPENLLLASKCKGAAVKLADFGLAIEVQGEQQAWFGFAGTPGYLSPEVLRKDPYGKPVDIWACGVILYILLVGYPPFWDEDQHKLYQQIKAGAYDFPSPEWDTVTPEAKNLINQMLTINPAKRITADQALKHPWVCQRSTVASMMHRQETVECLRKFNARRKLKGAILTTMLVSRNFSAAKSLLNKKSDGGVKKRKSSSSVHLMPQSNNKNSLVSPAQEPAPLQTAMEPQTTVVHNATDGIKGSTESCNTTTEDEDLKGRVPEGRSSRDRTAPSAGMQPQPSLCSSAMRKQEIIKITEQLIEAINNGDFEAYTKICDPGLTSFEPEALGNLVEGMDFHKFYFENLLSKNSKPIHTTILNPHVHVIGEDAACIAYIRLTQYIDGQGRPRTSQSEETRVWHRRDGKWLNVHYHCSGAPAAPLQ

[24] = biological target: 5'-AMP-activated protein kinase catalytic subunit alpha-1 (Homo sapiens) (UniProt Q13131); experiment: Activity at human AMPKalpha1 at 10 uM
[25] = biological target: Potassium voltage-gated channel subfamily A member 5 (Homo sapiens) (UniProt P22460); experiment: Activity at human Kv1.5 at 10 uM
[26] = biological target: Vasoactive intestinal polypeptide receptor 1 (Homo sapiens) (UniProt P32241); experiment: Activity at human VPAC1 at 10 uM
Vasoactive intestinal polypeptide receptor 1 (Homo sapiens), sequence (P32241 whole entry, canonical isoform): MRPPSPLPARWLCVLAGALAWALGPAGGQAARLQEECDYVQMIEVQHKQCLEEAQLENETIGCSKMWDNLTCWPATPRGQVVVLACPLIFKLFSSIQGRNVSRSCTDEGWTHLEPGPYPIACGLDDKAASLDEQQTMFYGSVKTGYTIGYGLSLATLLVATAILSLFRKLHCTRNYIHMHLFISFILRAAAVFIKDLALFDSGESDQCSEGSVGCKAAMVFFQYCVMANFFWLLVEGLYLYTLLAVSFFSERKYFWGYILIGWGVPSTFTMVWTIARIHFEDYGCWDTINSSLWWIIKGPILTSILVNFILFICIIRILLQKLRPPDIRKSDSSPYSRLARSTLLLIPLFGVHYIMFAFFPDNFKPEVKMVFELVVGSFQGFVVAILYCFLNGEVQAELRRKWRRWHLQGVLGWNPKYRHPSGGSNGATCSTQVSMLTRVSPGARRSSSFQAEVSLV

[27] = biological target: Vasoactive intestinal polypeptide receptor 1 (Homo sapiens) (UniProt P32241); experiment: Activity at human VPAC1 long isoform at 10 uM
[28] = biological target: 5-hydroxytryptamine receptor 1A (Homo sapiens) (UniProt P08908); experiment: Activity at human 5-HT1A receptor at 10 uM
5-hydroxytryptamine receptor 1A (Homo sapiens), sequence (P08908 whole entry): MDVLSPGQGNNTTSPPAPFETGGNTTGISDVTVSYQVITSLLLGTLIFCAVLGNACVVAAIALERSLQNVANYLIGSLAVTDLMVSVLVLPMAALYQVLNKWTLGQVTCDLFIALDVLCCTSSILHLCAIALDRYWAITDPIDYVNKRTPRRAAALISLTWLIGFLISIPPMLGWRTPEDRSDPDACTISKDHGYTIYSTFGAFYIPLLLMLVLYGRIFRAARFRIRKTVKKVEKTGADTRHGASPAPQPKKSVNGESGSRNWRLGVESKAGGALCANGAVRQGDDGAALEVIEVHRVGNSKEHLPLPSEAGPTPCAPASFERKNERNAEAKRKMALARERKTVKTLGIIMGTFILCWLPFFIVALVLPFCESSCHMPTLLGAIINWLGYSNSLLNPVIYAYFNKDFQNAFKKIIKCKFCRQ

Homo sapiens [29] = species on record: Homo sapiens; experiment: Activity at human Proteinase activated receptor at 10 uM
[30] = biological target: Prolactin-releasing peptide receptor (Homo sapiens) (UniProt P49683); experiment: Activity at human PRP receptor at 10 uM
[31] = biological target: Kappa-type opioid receptor (Homo sapiens) (UniProt P41145); experiment: Activity at human kappa opioid receptor at 10 uM
[32] = biological target: Motilin receptor (Homo sapiens) (UniProt O43193); experiment: Activity at human MTLR receptor at 10 uM
[33] = biological target: Leukotriene B4 receptor 1 (Homo sapiens) (UniProt Q15722); experiment: Activity at human BLT1 receptor at 10 uM
[34] = biological target: Galanin receptor type 1 (Homo sapiens) (UniProt P47211); experiment: Activity at human GAL1 receptor at 10 uM
Galanin receptor type 1 (Homo sapiens), sequence (P47211 whole entry): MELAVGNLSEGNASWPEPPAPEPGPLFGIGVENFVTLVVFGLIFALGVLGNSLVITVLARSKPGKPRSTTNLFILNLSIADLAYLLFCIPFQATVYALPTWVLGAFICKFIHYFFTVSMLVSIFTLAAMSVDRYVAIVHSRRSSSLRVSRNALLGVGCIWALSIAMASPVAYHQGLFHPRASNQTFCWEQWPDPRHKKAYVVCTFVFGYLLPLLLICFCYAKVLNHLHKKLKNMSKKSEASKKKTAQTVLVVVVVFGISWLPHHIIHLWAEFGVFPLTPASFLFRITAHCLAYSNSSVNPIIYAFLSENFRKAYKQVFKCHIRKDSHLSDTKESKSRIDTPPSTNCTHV

[35] = biological target: Endothelin-1 receptor (Homo sapiens) (UniProt P25101); experiment: Activity at human ETA receptor at 10 uM
[36] = biological target: D(1B) dopamine receptor (Homo sapiens) (UniProt P21918); experiment: Activity at human D5 receptor at 10 uM
[37] = biological target: Gastrin/cholecystokinin type B receptor (Homo sapiens) (UniProt P32239); experiment: Activity at human CCK2 receptor at 10 uM
Gastrin/cholecystokinin type B receptor (Homo sapiens), sequence (P32239 whole entry): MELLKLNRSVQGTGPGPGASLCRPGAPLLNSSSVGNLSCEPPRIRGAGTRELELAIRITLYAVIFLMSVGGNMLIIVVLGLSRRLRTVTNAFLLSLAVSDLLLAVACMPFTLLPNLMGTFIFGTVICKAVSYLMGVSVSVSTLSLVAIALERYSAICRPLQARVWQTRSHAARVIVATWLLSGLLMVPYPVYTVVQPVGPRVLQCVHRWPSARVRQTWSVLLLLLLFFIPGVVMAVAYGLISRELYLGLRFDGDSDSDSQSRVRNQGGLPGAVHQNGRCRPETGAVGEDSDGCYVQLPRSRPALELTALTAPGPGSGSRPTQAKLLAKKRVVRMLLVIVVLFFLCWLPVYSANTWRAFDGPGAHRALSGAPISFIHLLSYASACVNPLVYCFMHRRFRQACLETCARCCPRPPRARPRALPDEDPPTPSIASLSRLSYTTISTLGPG

[38] = biological target: CDK7/Cyclin H/MNAT1 (Homo sapiens) (UniProt P51946+P50613+P51948); experiment: Activity at human CDK7/cyclinH/MAT1 at 10 uM; type: protein-complex assay
[39] = biological target: Glycogen synthase kinase-3 beta (Homo sapiens) (UniProt P49841); experiment: Activity at human GSK3beta at 10 uM
Glycogen synthase kinase-3 beta (Homo sapiens), sequence (P49841 whole entry, looked up, canonical isoform): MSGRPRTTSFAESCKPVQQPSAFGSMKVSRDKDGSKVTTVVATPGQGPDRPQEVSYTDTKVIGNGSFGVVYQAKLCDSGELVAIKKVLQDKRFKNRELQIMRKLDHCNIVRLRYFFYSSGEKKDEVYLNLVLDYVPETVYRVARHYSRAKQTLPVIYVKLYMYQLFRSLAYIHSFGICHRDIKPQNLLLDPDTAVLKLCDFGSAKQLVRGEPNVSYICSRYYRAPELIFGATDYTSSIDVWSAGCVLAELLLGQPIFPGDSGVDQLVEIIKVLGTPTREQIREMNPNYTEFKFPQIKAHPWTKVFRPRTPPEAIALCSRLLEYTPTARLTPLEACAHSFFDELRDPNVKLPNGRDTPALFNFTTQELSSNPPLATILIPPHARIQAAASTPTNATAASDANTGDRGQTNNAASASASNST

[40] = biological target: Phosphorylase b kinase gamma catalytic chain, liver/testis isoform (Homo sapiens) (UniProt P15735); experiment: Activity at human PhKgamma2 at 10 uM
Homo sapiens [41] = species on record: Homo sapiens; experiment: Activity at human PKA at 10 uM
[42] = biological target: Protein kinase C zeta type (Homo sapiens) (UniProt Q05513); experiment: Activity at human PKCzeta at 10 uM
Protein kinase C zeta type (Homo sapiens), sequence (Q05513 whole entry): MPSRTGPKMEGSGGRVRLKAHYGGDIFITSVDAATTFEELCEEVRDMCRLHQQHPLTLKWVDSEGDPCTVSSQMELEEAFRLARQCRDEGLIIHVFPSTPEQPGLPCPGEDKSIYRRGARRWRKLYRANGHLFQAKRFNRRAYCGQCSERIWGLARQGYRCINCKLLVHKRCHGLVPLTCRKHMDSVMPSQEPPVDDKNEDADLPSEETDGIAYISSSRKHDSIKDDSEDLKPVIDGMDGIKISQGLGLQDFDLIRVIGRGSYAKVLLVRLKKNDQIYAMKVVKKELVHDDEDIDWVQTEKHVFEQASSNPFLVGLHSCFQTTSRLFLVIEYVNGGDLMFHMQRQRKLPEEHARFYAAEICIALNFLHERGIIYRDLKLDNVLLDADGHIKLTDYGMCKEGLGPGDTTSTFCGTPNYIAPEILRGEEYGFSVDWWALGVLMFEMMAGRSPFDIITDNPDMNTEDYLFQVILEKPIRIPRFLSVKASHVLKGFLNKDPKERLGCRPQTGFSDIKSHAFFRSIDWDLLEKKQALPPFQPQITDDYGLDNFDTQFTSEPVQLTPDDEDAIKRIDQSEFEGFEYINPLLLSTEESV

With `CS(=O)(=O)c1ccc(Oc2cc(F)cc(C#N)c2)c2c1[C@H](O)[C@H](F)[C@@H]2F` [BELZUTIFAN] the Activity [1] was “inactive”, the Activity [2] was “inactive” and the Activity [3] was “inactive”. The concentration at 24 h [4] was 500 ng/mL, the logD [5] was 1.2 and the fraction unbound at 4 h, 10 µM [6] was 0.44. The “inhibition (INH)” value (Cytochrome P450 2C8) was “Not Active”, the “inhibition (INH)” value (Cytochrome P450 2C19) was “Not Active” and the “inhibition (INH)” value (Cytochrome P450 2D6) was “Not Active”. For the same compound, the Vd [7] was 4.9 L/kg, the half-life [8] was 1.4 h and the half-life [9] was 9.2 h. For the same compound, the Activity (786-0) was “Active”, the half-life [10] was 20.9 h and the Cmax [11] was 1400 ng/mL. For the same compound, the Cmax [12] was 2700 ng/mL, the AUC(0-t) [13] was 17500 ng·h/mL and the AUC(0-t) [14] was 25900 ng·h/mL. For the same compound, the concentration at 24 h [15] was 60 ng/mL, the “inhibition (INH)” value (Homo sapiens [16]) was “Dose-dependent effect” and the Activity [17] was “inactive”. For the same compound, the Activity [18] was “inactive”, the Activity [19] was “inactive” and the Activity [20] was “inactive”. The Activity [21] was “inactive”, the Activity [22] was “inactive” and the Activity [23] was “inactive”. The Activity [24] was “inactive”, the Activity [25] was “inactive” and the Activity [26] was “inactive”. For the same compound, the Activity [27] was “inactive”, the Activity [28] was “inactive” and the Activity (Homo sapiens [29]) was “inactive”. For the same compound, the Activity [30] was “inactive”, the Activity [31] was “inactive” and the Activity [32] was “inactive”. The Activity [33] was “inactive”, the Activity [34] was “inactive” and the Activity [35] was “inactive”. For the same compound, the Activity [36] was “inactive”, the Activity [37] was “inactive” and the Activity [38] was “inactive”. For the same compound, the Activity [39] was “inactive”, the Activity [40] was “inactive” and the Activity (Homo sapiens [41]) was “inactive”. The Activity [42] was “inactive”.
